Literature values, collected in patent publication US20260325482A1, “TASIMELTEON FOR USE IN THE TREATMENT OF DELAYED SLEEP-WAKE PHASE DISORDER” (VANDA PHARMACEUTICALS INC., priority 2023, published 2026).

Assays:
Non-24 = conditions: daily dose of 20 mg administered once, before bedtime
[1] = healthy volunteers, participants with primary insomnia, Non-24, and pediatric participants with SMS
SMS = conditions: daily dose of 0.7 mg/kg once daily; patients having a body mass of 28 kg or less
[2] = high-calorie/high-fat meals
MT2 receptor = MT2 receptor vs MT1 receptor

linearity of pharmacokinetics (doses ranging from 3 mg to 300 mg): linear
absolute bioavailability (oral): 38%
Cmax with food [2]: significantly lower
Tmax with food [2]: delay
extent of absorption with food [2]: not significantly affected
SMILES: CCC(=O)NC[C@@H]1C[C@H]1c1cccc2c1CCO2 [tasimelteon]
effectiveness in treating Non-24 (Non-24): effective
safety and tolerability [1]: safe and well-tolerated
effectiveness in treating SMS (SMS): effective
affinity for the MT2 receptor compared with the MT1 receptor (MT2 receptor): greater affinity for the MT2 receptor than the MT1 receptor
